Assay results as given in ChEMBL document CHEMBL1149414, “Vitamin D receptor: ligand recognition and allosteric network” (J Med Chem, 2006).

Columns and labels:
Vitamin D3 receptor [1] = molecular target: T1, Vitamin D3 receptor (Homo sapiens, UniProt P11473); assay: Inhibition of transactivation of human VDR in COS7 cells; assay type: functional, cell-based, COS-7
T1 sequence (P11473 whole entry): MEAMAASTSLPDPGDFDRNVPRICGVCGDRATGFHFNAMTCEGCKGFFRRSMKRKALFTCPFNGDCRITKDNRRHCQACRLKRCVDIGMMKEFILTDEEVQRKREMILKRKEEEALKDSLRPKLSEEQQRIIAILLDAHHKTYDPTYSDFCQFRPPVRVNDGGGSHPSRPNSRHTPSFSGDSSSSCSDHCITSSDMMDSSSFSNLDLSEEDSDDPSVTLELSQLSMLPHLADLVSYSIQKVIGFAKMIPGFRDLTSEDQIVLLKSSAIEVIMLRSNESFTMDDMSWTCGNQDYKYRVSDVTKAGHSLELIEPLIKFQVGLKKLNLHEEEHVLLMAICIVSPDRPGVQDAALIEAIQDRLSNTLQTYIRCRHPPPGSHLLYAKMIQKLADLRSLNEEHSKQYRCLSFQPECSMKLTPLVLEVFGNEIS

Vitamin D3 receptor [2] = molecular target: T1, Vitamin D3 receptor; assay: Antagonistic activity against human VDR in presence of 1,25(OH)2D3; assay type: functional

Compound: C=C1C[C@H](C[C@@H](C)[C@H]2CC[C@H]3/C(=C/C=C4C[C@@H](O)C(=C)[C@H](O)C4)CCC[C@]23C)OC1=O
- IC50 (Vitamin D3 receptor [1]): 300 nM

Compound: C[C@H](/C=C/C[C@H](O)C12CC3CC(CC(C3)C1)C2)[C@H]1CC[C@H]2/C(=C/C=C3C[C@@H](O)C[C@H](O)C3)CCC[C@]12C
- IC50 (Vitamin D3 receptor [1]): 400 nM
- IC50 (Vitamin D3 receptor [2]): 50 nM
